ChEMBL document CHEMBL3621163, “Phenothiazine-based CaaX competitive inhibitors of human farnesyltransferase bearing a cysteine, methionine, serine or valine moiety as a new family of antitumoral compounds” (Bioorg Med Chem Lett, 2015)

Legend:
Format in all cases: protein-complex assay
[1] = biological target: T1, Protein farnesyltransferase (Homo sapiens, UniProt P49354+P49356); assay: Inhibition of recombinant human FTase using FPP/dansyl-GCVLS as substrate at 100 uM measured for 15 mins by fluorimetric analysis relative to control
[2] = biological target: T1, Protein farnesyltransferase; assay: Inhibition of recombinant human FTase using FPP/dansyl-GCVLS as substrate measured for 15 mins by fluorimetric analysis
[3] = biological target: T1, Protein farnesyltransferase; assay: Inhibition of human FTase

SMILES | inhibition [1] | IC50 [2] | IC50 [3]
COC(=O)[C@H](CO)NC(=O)CCN1c2ccccc2Sc2ccccc21 | 63% | – | –
O=C(CCn1c2ccccc2c2ccccc21)N[C@@H](CO)C(=O)O | 33% | – | –
O=C(CCn1c2ccccc2c2ccccc21)OCCS | – | – | 35 µM
CSCC[C@H](NC(=O)CCN1c2ccccc2Sc2ccccc21)C(=O)O | 92% | 11.7 µM | –
O=C(CCN1c2ccccc2Sc2ccccc21)N[C@@H](CS)C(=O)O | 92% | 4.7 µM | –
CCOC(=O)[C@H](CS)NC(=O)CCN1c2ccccc2Sc2ccccc21 | 10% | – | –
O=C(CCN1c2ccccc2Sc2ccccc21)N[C@@H](CO)C(=O)O | 94% | 12 µM | –
COC(=O)[C@H](CO)NC(=O)CCn1c2ccccc2c2ccccc21 | 23% | – | –
COC(=O)[C@H](CCSC)NC(=O)CCN1c2ccccc2Sc2ccccc21 | 5% | – | –
COC(=O)[C@H](CCSC)NC(=O)CCn1c2ccccc2c2ccccc21 | 51% | – | –

More lines, now with the values ahead:

inhibition [1] | IC50 [2] | IC50 [3] | SMILES
22% | – | – | CC(C)[C@H](NC(=O)CCn1c2ccccc2c2ccccc21)C(=O)O
12% | – | – | COC(=O)[C@@H](NC(=O)CCn1c2ccccc2c2ccccc21)C(C)C
0% | – | – | COC(=O)[C@H](CCSC)NC(=O)CCN1c2ccccc2Sc2ccc(Cl)cc21
67% | 65.4 µM | – | O=C(CCn1c2ccccc2c2ccccc21)N[C@@H](CS)C(=O)O
96% | 18.9 µM | – | CSCC[C@H](NC(=O)CCN1c2ccccc2Sc2ccc(Cl)cc21)C(=O)O
76% | 44.7 µM | – | CC(C)[C@H](NC(=O)CCN1c2ccccc2Sc2ccccc21)C(=O)O
0% | – | – | CCOC(=O)[C@H](CSSC[C@H](NC(=O)CCN1c2ccccc2Sc2ccccc21)C(=O)OCC)NC(=O)CCN1c2ccccc2Sc2ccccc21
15% | – | – | CCOC(=O)[C@H](CS)NC(=O)CCn1c2ccccc2c2ccccc21
73% | 40.2 µM | – | CSCC[C@H](NC(=O)CCn1c2ccccc2c2ccccc21)C(=O)O
52% | – | – | COC(=O)[C@@H](NC(=O)CCN1c2ccccc2Sc2ccccc21)C(C)C
